Measured values from ChEMBL document CHEMBL5512671, “Structure-Based Optimization of Novel Sterol 24-C-Methyltransferase Inhibitors for the Treatment of Candida albicans Infections” (J Med Chem, 2024).
In brackets after ≈: the same amount, converted by molar mass. Activity calls are given as the source filed them. The calls are words filed in the database; no cut-off is given here.

Columns and labels:
[1] = test system: Candida albicans; assay: Antifungal activity against Candida albicans SC5314 assessed as inhibition of fungal growth incubated for 24 hrs by CLSI protocol based broth microdilution method; assay type: functional
[2] = test system: Candida albicans; assay: Antifungal activity against Candida albicans SN152 assessed as inhibition of fungal growth incubated for 24 hrs by CLSI protocol based broth microdilution method; assay type: functional
[3] = test system: Candida albicans; assay: Antifungal activity against Candida albicans erg6delta/delta assessed as inhibition of fungal growth incubated for 24 hrs by CLSI protocol based broth microdilution method; assay type: functional
[4] = test system: Candida albicans; assay: Synergistic antifungal activity against Candida albicans SC5314 assessed as inhibition of fungal growth incubated for 24 hrs in presence of (Z)-1,5-dimethyl-4-(4-(naphthalen-2-yl)-2-(phenylimino)thiazol-3(2H)-yl)-2-phenyl-1,2-dihydro-3H-pyrazol-3-one by broth microdilution checkerboard assay; assay type: functional
[5] = test system: Candida albicans; assay: Synergistic antifungal activity against Candida albicans SC5314 assessed as inhibition of fungal growth incubated for 24 hrs in presence of (Z)-4-(4-(4-bromophenyl)-2-(phenylimino)thiazol-3(2H)-yl)-1,5-dimethyl-2-phenyl-1,2-dihydro-3H-pyrazol-3-one by broth microdilution checkerboard assay; assay type: functional
[6] = test system: Candida albicans; assay: Antifungal activity against Candida albicans SC5314 assessed as inhibition of hyphae growth incubated for 24 hrs by CLSI protocol based broth microdilution method; assay type: functional
[7] = Cytotoxicity against human BEAS-2B cells incubated for 48 hrs by CCK-8 method; assay type: toxicity, cell-based
[8] = Cytotoxicity against human HUVEC cells incubated for 48 hrs by CCK-8 method; assay type: toxicity, cell-based
[9] = Hemolytic activity in mouse RBC assessed as hemolysis at 2 to 32 ug/ml incubated for 60 mins by absorbance based analysis relative to control; assay type: toxicity, cell-based, Erythrocyte; conditions: mouse red blood cells, at 2 to 32 µg/mL, dose 2-32 µg/ml, read-out: Activity
[10] = target: T1, Sterol 24-C-methyltransferase (Candida albicans (strain SC5314 / ATCC MYA-2876) (Yeast), UniProt O74198); assay: Inhibition of recombinant Candida albicans SC5314 Erg6 methyltransferase activity using zymosterol as substrate incubated for 15 mins followed by substrate addition by liquid scintillation counter analysis
T1 sequence (O74198 whole entry): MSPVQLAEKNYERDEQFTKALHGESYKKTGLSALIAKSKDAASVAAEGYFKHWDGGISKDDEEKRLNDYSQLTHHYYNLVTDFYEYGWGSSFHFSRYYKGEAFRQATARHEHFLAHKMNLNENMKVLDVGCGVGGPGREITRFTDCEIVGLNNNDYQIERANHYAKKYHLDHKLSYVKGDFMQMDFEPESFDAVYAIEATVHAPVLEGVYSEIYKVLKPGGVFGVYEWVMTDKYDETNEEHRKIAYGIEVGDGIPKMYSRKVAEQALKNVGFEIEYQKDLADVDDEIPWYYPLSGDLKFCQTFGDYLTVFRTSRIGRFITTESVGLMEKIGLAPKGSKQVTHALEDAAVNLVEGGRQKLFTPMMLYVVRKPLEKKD

[11] = test system: Candida albicans; assay: Synergistic antifungal activity against Candida albicans SC5314 assessed as inhibition of fungal growth incubated for 24 hrs in presence of tridemorph by broth microdilution checkerboard assay; assay type: functional
[12] = test system: Candida albicans; assay: Antifungal activity against Candida albicans SC5314 assessed as inhibition of hyphae growth measured after 30 passages; assay type: functional, organism-based
[13] = test system: Candida albicans; assay: Synergistic antifungal activity against Candida albicans SC5314 assessed as inhibition of fungal growth incubated for 24 hrs in presence of terbinafine by broth microdilution checkerboard assay; assay type: functional
[14] = test system: Candida albicans; assay: Synergistic antifungal activity against Candida albicans SC5314 assessed as fractional inhibitory concentration index incubated for 24 hrs in presence of tridemorph by broth microdilution checkerboard assay; assay type: functional
[15] = test system: Candida albicans; assay: Synergistic antifungal activity against Candida albicans SC5314 assessed as fractional inhibitory concentration index incubated for 24 hrs in presence of terbinafine by broth microdilution checkerboard assay; assay type: functional

MIC80 [1] [µg/mL]	MIC50 [6] [µg/mL]	Compound	EC50 at 48 h [7] [µg/mL]	EC50 at 48 h [8] [µg/mL]	hemolysis at 1 h [9] [%]	also measured
> 128	1 (≈ 1.76 µM)	Cc1c(-n2c(-c3ccc(Br)cc3)cs/c2=N\c2ccc3ccccc3c2)c(=O)n(-c2ccccc2)n1C	> 50	> 50	< 1	–
> 128	1 (≈ 1.68 µM)	Cc1c(-n2c(-c3ccc(Br)cc3)cs/c2=N\c2ccc(Br)cc2)c(=O)n(-c2ccccc2)n1C	> 50	> 50	< 1	–
> 128	2 (≈ 3.52 µM)	Cc1c(-n2c(-c3ccc4ccccc4c3)cs/c2=N\c2ccc(Br)cc2)c(=O)n(-c2ccccc2)n1C	> 50	> 50	< 1	–
> 128	4 (≈ 8.84 µM)	Cc1ccc(-c2cs/c(=N\c3ccccc3)n2-c2c(C)n(C)n(-c3ccccc3)c2=O)cc1	–	–	–	–
> 128	2 (≈ 3.59 µM)	Cc1c(-n2c(-c3ccc4ccccc4c3)cs/c2=N\c2ccc(C(F)(F)F)cc2)c(=O)n(-c2ccccc2)n1C	> 50	> 50	< 1	–
> 128	> 128	Cc1c(-n2c(-c3ccc(C#N)cc3)cs/c2=N\c2ccccc2)c(=O)n(-c2ccccc2)n1C	–	–	–	–
> 128	2 (≈ 4.15 µM)	Cc1c(-n2c(-c3ccc(N(C)C)cc3)cs/c2=N\c2ccccc2)c(=O)n(-c2ccccc2)n1C	> 50	> 50	< 1	–

The remaining lines, values behind:

Compound	MIC80 [1] [µg/mL]	MIC50 [6] [µg/mL]	EC50 at 48 h [7] [µg/mL]	EC50 at 48 h [8] [µg/mL]	hemolysis at 1 h [9] [%]	also measured
CCCCCCCCCCCCCN1CC(C)OC(C)C1 (centres undefined) [TRIDEMORPH]	> 128	–	–	–	–	MIC80 [2]: > 128 µg/mL; MIC80 [3]: 0.008 µg/mL (≈ 0.0269 µM); MIC80 [4]: 0.008 µg/mL; MIC80 [5]: 0.5 µg/mL
Cc1c(-n2c(-c3ccc4ccccc4c3)cs/c2=N\c2ccc3ccccc3c2)c(=O)n(-c2ccccc2)n1C	> 128	0.5 (≈ 0.928 µM)	> 50	> 50	< 1	–
Cc1c(-n2c(-c3ccc(Br)cc3)cs/c2=N\c2ccccc2)c(=O)n(-c2ccccc2)n1C	> 128	2 (≈ 3.87 µM)	> 50	> 50	< 1	IC50 [10]: 1010 nM; MIC80 [11]: 8 µg/mL; Activity [12]: Active; MIC80 [13]: 8 µg/mL; fractional inhibitory concentration index (FICI) [14]: <0.1; fractional inhibitory concentration index (FICI) [15]: <0.1
CN(C/C=C/C#CC(C)(C)C)Cc1cccc2ccccc12 [TERBINAFINE]	32 (≈ 110 µM)	–	–	–	–	MIC80 [2]: 32 µg/mL (≈ 110 µM); MIC80 [3]: 0.5 µg/mL (≈ 1.72 µM); MIC80 [4]: 0.008 µg/mL; MIC80 [5]: 0.5 µg/mL
CC(=O)c1cs/c(=N\c2ccccc2)n1-c1c(C)n(C)n(-c2ccccc2)c1=O	> 128	> 128	–	–	–	–
Cc1c(-n2c(-c3ccc4ccccc4c3)cs/c2=N\c2cccc3ccccc23)c(=O)n(-c2ccccc2)n1C	> 128	0.5 (≈ 0.928 µM)	> 50	> 50	< 1	–
Cc1c(-n2c(-c3cccc(Cl)c3)cs/c2=N\c2ccccc2)c(=O)n(-c2ccccc2)n1C	> 128	> 128	–	–	–	–
